The source of these data is patent publication US20260132123A1, “ABAD INHIBITOR COMPOUNDS” (UNIVERSITY COURT OF THE UNIVERSITY OF ST ANDREWS, priority 2021, published 2026).

The target of this experiment is T1, 17β-HSD10 (Homo sapiens, UniProt Q99714).
T1 construct: Histev (histidine tag with TEV site) (N, cleaved yes); made in house; host or cells: E. coli BL21-CodonPlus
T1 sequence (Q99714 1-261): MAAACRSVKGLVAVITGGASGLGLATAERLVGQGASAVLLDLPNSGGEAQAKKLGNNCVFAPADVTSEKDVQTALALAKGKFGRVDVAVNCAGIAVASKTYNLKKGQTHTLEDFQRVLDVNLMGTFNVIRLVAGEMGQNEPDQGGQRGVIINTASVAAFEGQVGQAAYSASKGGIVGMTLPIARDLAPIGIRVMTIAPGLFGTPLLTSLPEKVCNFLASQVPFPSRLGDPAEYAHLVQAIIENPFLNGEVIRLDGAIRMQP
Nature of the experiment: 17β-HSD10 (ABAD) enzyme inhibition assay, NADH oxidation read at 340 nm (primary screen and dose response). It counts as biochemical. Particulars: for EC50 / Max. Effect (%) / Hill Slope / Max. Fit / Min. Fit: recombinant 17βHSD10 enzyme assay; for Hill Slope / Max. Fit / Min. Fit: curve fit. As for the experimental part:
Cell pellets of E. coli BL21-CodonPlus cells containing Histev-17β-HSD10 protein were re-suspended for 30 min, 4° C., in lysis buffer (20 mM NaH2PO4, 30 mM imidazole, 500 mM NaCl, 10% (v/v) glycerol, pH 7.5) with the addition of complete ethylenediaminetetraacetic acid (EDTA)-free protease inhibitor tablets (Roche), lysozyme (1 mg/mL), deoxyribonuclease (DNase) (20 μg/mL) and Triton X-100 (0.1% (v/v)). Cells were lysed by passage through a cell disruptor at 30 kPSI (Constant Systems Ltd) and the lysate was cleared by centrifugation (Sorvall Evolution RC, rotor S5-34 55-34 angle, 20500 rpm, 30 min, 4° C.). Cleared lysate was filtered (0.45 μm membrane; Whatman) then applied to a Ni-nitrilotriacetic acid (NTA) (GE Healthcare) column pre-washed with lysis buffer and protein eluted with 300 mM imidazole buffer (20 mM NaH2PO4, 300 mM imidazole, 500 mM NaCl, 10% (v/v) glycerol, pH 7.5). […] Protein digestion and dialysis was carried out at 4° C. for 16 h.
Complete digestion was firstly checked by sodium dodecyl sulfate-polyacrylamide gel electrophoresis (SDS-PAGE), then fully digested protein was passed over a second Ni-column and the flow-through, containing 17β-HSD10 protein, was concentrated using a Vivaspin column (10 kDa MWCO, GE Healthcare) to ˜7 mL before final purification using gel filtration to remove imidazole (Hi-Load 16/60 Superdex 75 prep grade column, GE Healthcare, flow rate 1.5 mL/min). Protein was eluted in gel filtration buffer (10 mM trisaminomethane (Tris-HCl), 150 mM NaCl, 10% glycerol, pH 7.5) and concentrated (Vivaspin column (10 kDa molecular weight cut off (MWCO), GE Healthcare)) to 10 mg/mL. Aliquots (10 μL) were taken and flash frozen in liquid nitrogen before final storage at −80° C.
The assay buffer used contains: 10 mM Tris. HCl (pH 7.4), 150 mM NaCl, 1 mM DTT, 0.005% Tween (polysorbate 20) and 0.01% bovine serum albumin (BSA). As indicated for some experiments the assay buffer was supplemented with 100 units/ml bovine liver catalase. All experiments were conducted in clear bottom 384-well or 1536-well low volume microplates (Corning) with a final assay volume of 20 μL and the reaction progress was monitored by oxidation of NADH as determined by reduction in absorbance at 340 nm read on the EnVision plate reader (PerkinElmer).
For primary screening an endpoint assay format was adopted in which an Echo acoustic liquid dispenser (Labcyte) was used to transfer 20 nL of either reference standard, dimethylsulfoxide (DMSO) control ([…] final assay concentration (FAC)) or test compounds (10 μM FAC) to the assay plate. 10 μL of 17β-HSD10 enzyme in assay buffer (2.5 nM, FAC) was then added to the plates using the Preddator liquid handling robot (Redd and Whyte) and plates were incubated at room temperature for 15 minutes. 10 μL of substrate mixture (100 μM acetoacetyl-CoA and 100 μM NADH, FAC) was added with the Preddator. To start the reaction and the plates were left to incubate for 35 minutes at room temperature before the absorbance at 340 nm was read on the EnVision plate reader (PerkinElmer). For kinetic assay format and dose response follow up experiments the same protocol was adopted but the absorbance at 340 nm was monitored constantly for 45 minutes from immediately after the reaction was started.

For orientation: EC50 means the concentration at which the effect is half-maximal. For the compound `COc1cccc(-c2ccccc2[C@@H]2CCCN2Cc2sccc2F)c1` (racemic) [ESC1002695], the “17β-HSD10 / ABAD activity in words (SAR discussion)” value (from here on “17β-HSD10 / ABAD activity in words”) is recorded as “lost all activity”, the EC50 is more than 20000 nM and the “Max. Effect (%)” value is reported as 1%.

As for `O=C(c1sccc1Cl)N1CCC[C@H]1c1ccccc1-c1ccc(O)cc1` (racemic) [ESC1002696], the concentration for a half-maximal effect (EC50) was 302 nM, the “Max. Effect (%)” value is 97%, the “Hill Slope” value is recorded as 1.2 and the “Max. Fit” value is 97. Besides, the “Min. Fit” value stood at 1.

For `O=C(c1sccc1Cl)N1CCC[C@H]1c1ccccc1-c1ccnc(O)c1` (racemic) [ESC1002697], the “17β-HSD10 / ABAD activity in words” value is reported as “less active”, the concentration giving a half-maximal response (EC50) is more than 20000 nM and the “Max. Effect (%)” value came to 43%.

As for `O=C(c1sccc1Cl)N1CCC[C@H]1c1ccccc1-c1cncnc1` (racemic) [ESC1002698], the EC50 was 7410 nM, the “Max. Effect (%)” value was 59%, the “Hill Slope” value was determined as 1.1 and the “Max. Fit” value amounted to 71. In addition, the “Min. Fit” value was found to be 1.

Turning to `COc1cc(-c2ccccc2[C@@H]2CCCN2C(=O)c2sccc2Cl)ccc1F` (racemic) [ESC1002699], the EC50 is 263 nM, the “Max. Effect (%)” value stood at 97%, the “Hill Slope” value stood at 1.2 and the “Max. Fit” value turned out to be 96. The “Min. Fit” value is given as 5.

With `COc1cc(-c2ccccc2[C@@H]2CCCN2C(=O)c2sccc2Cl)ccc1C` (racemic) [ESC1002700], the EC50 is 398 nM, the “Max. Effect (%)” value stood at 93%, the “Hill Slope” value is reported as 1.4 and the “Max. Fit” value came to 92. Moreover, the “Min. Fit” value is on record as −2.

For `O=C(c1sccc1Cl)N1CCC[C@H]1c1ccccc1-c1ccc2[nH]ncc2c1` (racemic) [ESC1002701], the 50% effective concentration (EC50) is 288 nM, the “Max. Effect (%)” value was 99%, the “Hill Slope” value was 1.2 and the “Max. Fit” value came out at 96. The “Min. Fit” value came out at 0.

Regarding `O=C(c1sccc1Cl)N1CCC[C@H]1c1ccccc1-c1cccc2[nH]ncc12` (racemic) [ESC1002702], the “17β-HSD10 / ABAD activity in words” value was “less active”, the concentration giving a half-maximal response (EC50) is 1260 nM, the “Max. Effect (%)” value was determined as 91% and the “Hill Slope” value was 0.91. Also, the “Max. Fit” value was 98 and the “Min. Fit” value was −9.

On to `Cn1cc(-c2ccccc2[C@@H]2CCCN2C(=O)c2sccc2Cl)cn1` (racemic) [ESC1002704], for which the EC50 is 1070 nM, the “Max. Effect (%)” value is reported as 98%, the “Hill Slope” value is 1 and the “Max. Fit” value is given as 103. The “Min. Fit” value is recorded as −10.

As to `O=C(c1sccc1Cl)N1CCC[C@H]1c1ccccc1-c1ccc(F)c(O)c1` (racemic) [ESC1002775], the EC50 is 49 nM, the “Max. Effect (%)” value is reported as 100%, the “Hill Slope” value was found to be 1.2 and the “Max. Fit” value was 96. In addition, the “Min. Fit” value worked out at 0.

Consider `O=C(c1sccc1Cl)N1CCC[C@H]1c1ccccc1-c1cc(O)cc(F)c1` (racemic) [ESC1002776], for which the concentration giving a half-maximal response (EC50) is 40.7 nM, the “Max. Effect (%)” value came to 99%, the “Hill Slope” value was 1 and the “Max. Fit” value stood at 96. In addition, the “Min. Fit” value is recorded as −1.

For `Cc1ccsc1C(=O)N1CCC[C@H]1c1ccccc1-c1cccc(C(F)(F)F)c1` (racemic) [ESC1002789], the “Max. Effect (%)” value was 11%.

In the case of `Cc1ccsc1C(=O)N1CCC[C@H]1c1ccccc1-c1cccc(C(F)(F)F)c1` (racemic) [ESC1002790], the “Max. Effect (%)” value was 93%, the “Hill Slope” value stood at 1.2, the “Max. Fit” value is given as 93 and the “Min. Fit” value is reported as −1.

As to `COc1cccc(-c2ccccc2[C@H]2CCCN2C(=O)c2sccc2C)c1` (single isomer, unassigned) [ESC1002420], the EC50 is more than 20000 nM and the “Max. Effect (%)” value worked out at 28%.

Take `COc1cccc(-c2ccccc2[C@@H]2CCCN2C(=O)c2sccc2C)c1` (single isomer, unassigned) [ESC1002421]: the concentration giving a half-maximal response (EC50) was 186 nM, the “Max. Effect (%)” value is recorded as 97%, the “Hill Slope” value was found to be 1.6 and the “Max. Fit” value is recorded as 95. The “Min. Fit” value came to 11.

In the case of `O=C(c1sccc1Cl)N1CCC[C@H]1c1ccccc1-c1cccc(O)c1` (single isomer, unassigned) [ESC1002754], the 50% effective concentration (EC50) is more than 20000 nM and the “Max. Effect (%)” value came to 20%.

As for `COc1cccc(-c2ccccc2[C@@H]2CCCN2C(=O)c2[nH]ncc2Cl)c1` (single isomer, unassigned) [ESC1002756], the EC50 was more than 20000 nM and the “Max. Effect (%)” value is on record as 24%.

`Cc1ccsc1C(=O)N1CCC[C@H]1c1ccccc1-c1ccccc1Cl` (single isomer, unassigned) [ESC1002766]: the concentration giving a half-maximal response (EC50) was more than 20000 nM and the “Max. Effect (%)” value came out at 14%.

Regarding `Cc1ccsc1C(=O)N1CCC[C@H]1c1ccccc1-c1ccccc1Cl` (single isomer, unassigned) [ESC1002767], the EC50 was 155 nM, the “Max. Effect (%)” value turned out to be 96%, the “Hill Slope” value is listed as 0.98 and the “Max. Fit” value was found to be 96. The “Min. Fit” value is reported as −2.

In the case of `Cc1ccsc1C(=O)N1CCC[C@H]1c1ccccc1-c1cccc(Cl)c1` (single isomer, unassigned) [ESC1002768], the 50% effective concentration (EC50) is more than 20000 nM and the “Max. Effect (%)” value came to 12%.

As to `Cc1ccsc1C(=O)N1CCC[C@H]1c1ccccc1-c1cccc(C(F)(F)F)c1` (single isomer, unassigned) [ESC1002789], the half-maximal effective concentration (EC50) is more than 20000 nM.

`Cc1ccsc1C(=O)N1CCC[C@H]1c1ccccc1-c1cccc(C(F)(F)F)c1` (single isomer, unassigned) [ESC1002790]: the half-maximal effective concentration (EC50) was 661 nM.

As for `O=C(c1[nH]ncc1Cl)N1CCC[C@H]1c1ccccc1-c1cccc(O)c1` (single isomer, unassigned) [ESC1002798], the EC50 was more than 20000 nM and the “Max. Effect (%)” value is 18%.

Take `O=C(c1sccc1Cl)N1CCC[C@H]1c1ccccc1-c1cc(O)cc(F)c1` (single isomer, unassigned) [ESC1002800]: the EC50 is more than 20000 nM and the “Max. Effect (%)” value came out at 10%.

Take `O=C(c1sccc1Cl)N1CCC[C@H]1c1ccccc1-c1cc(O)cc(F)c1` (single isomer, unassigned) [ESC1002801]: the EC50 is 51.3 nM, the “Max. Effect (%)” value is on record as 100%, the “Hill Slope” value is reported as 1.2 and the “Max. Fit” value is recorded as 96. Besides, the “Min. Fit” value was −1.

Consider `O=C(c1sccc1Cl)N1CCC[C@H]1c1ccccc1-c1ccc(F)c(O)c1` (single isomer, unassigned) [ESC1002838], for which the EC50 is 51.3 nM, the “Max. Effect (%)” value stood at 99%, the “Hill Slope” value amounted to 1.2 and the “Max. Fit” value turned out to be 97. In addition, the “Min. Fit” value is 0.

As for `O=C(c1sccc1Cl)N1CCC[C@H]1c1ccccc1-c1ccc(F)c(O)c1` (single isomer, unassigned) [ESC1002839], the EC50 was 4170 nM, the “Max. Effect (%)” value came to 85%, the “Hill Slope” value is on record as 1.1 and the “Max. Fit” value is 96. In addition, the “Min. Fit” value is listed as −4.
